The values below are quoted from earlier work in US20210220430A1, “USE OF NOD2 AGONIST FOR THE TREATMENT, PROPHYLAXIS AND/OR DELAY OF THE ONSET OF MULTIPLE SCLEROSIS AND ALZHEIMER?S DISEASE” (UNIVERSITE LAVAL, priority 2018, published 2021).

The target in the data set is NOD2 (Homo sapiens, UniProt Q9HC29). The conditions noted are these: compared with classical N-acetyl MDP.
Chain of NOD2 (Q9HC29 whole entry, species assumed): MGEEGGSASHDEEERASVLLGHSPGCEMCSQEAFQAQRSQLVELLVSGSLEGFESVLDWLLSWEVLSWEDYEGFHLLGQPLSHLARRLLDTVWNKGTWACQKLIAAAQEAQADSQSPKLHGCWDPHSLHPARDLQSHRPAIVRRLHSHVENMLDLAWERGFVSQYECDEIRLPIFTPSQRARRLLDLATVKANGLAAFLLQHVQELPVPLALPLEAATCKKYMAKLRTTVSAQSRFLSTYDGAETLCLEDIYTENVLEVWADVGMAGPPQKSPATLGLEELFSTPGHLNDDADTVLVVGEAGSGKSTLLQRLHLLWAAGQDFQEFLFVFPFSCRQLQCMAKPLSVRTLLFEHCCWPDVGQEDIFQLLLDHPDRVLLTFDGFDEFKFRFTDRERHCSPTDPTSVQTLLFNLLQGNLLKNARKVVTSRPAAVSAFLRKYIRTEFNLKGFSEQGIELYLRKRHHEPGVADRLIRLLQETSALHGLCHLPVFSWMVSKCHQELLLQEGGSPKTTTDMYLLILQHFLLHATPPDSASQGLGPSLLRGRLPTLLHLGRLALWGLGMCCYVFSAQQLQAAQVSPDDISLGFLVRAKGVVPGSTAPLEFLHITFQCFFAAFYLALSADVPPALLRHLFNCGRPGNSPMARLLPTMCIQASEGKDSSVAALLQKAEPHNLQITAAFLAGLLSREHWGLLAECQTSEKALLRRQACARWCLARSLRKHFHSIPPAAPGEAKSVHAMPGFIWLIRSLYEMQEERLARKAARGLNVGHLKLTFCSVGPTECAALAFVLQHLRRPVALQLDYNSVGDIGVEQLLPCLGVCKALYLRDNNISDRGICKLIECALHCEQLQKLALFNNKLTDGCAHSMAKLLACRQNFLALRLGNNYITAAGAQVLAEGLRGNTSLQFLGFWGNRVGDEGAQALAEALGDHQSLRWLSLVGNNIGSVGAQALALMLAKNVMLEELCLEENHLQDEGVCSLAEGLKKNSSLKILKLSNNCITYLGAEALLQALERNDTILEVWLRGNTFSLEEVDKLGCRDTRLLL

Regarding `C[C@@H](NC(=O)[C@@H](C)OC1C(NC(=O)CO)[C@@H](O)OC(CO)[C@H]1O)C(=O)NC(CCC(=O)O)C(N)=O` (stereo partly shown) [N-glycolyl MDP], the “NOD2 agonist potency at stimulating inflammatory genes” value is listed as “more potent”.
